# BindingDB's records for doi:10.1016/s0960-894x(03)00461-x (Eli Lilly, 2003)
# Target: cAMP-dependent protein kinase catalytic subunit alpha (Bos taurus, UniProt P00517)
# Test: CDK Kinase Inhibition Assay
# Conditions: 25 °C
row,SMILES,IC50 [µM]
1,"O=C1NC(=O)c2c1c1c(ccc3cc[nH]c31)c1[nH]c3ccccc3c21 [3,13,18-triazahexacyclo[14.7.0.0^{2,10}.0^{4,9}.0^{11,15}.0^{17,21}]tricosa-1(16),2(10),4(9),5,7,11(15),17(21),19,22-nonaene-12,14-dione]",> 2
2,"O=C1NC(=O)c2c1c1c(ccc3cc[nH]c31)c1c2c2ccccc2n1CCCO [3-(3-hydroxypropyl)-3,13,18-triazahexacyclo[14.7.0.0^{2,10}.0^{4,9}.0^{11,15}.0^{17,21}]tricosa-1(16),2(10),4(9),5,7,11(15),17(21),19,22-nonaene-12,14-dione]",> 20
3,"Cn1ccc2ccc3c(c4c(c5c6ccccc6n(CCCO)c35)C(=O)NC4=O)c21 [3-(3-hydroxypropyl)-18-methyl-3,13,18-triazahexacyclo[14.7.0.0^{2,10}.0^{4,9}.0^{11,15}.0^{17,21}]tricosa-1(16),2(10),4(9),5,7,11(15),17(21),19,22-nonaene-12,14-dione]",> 2
4,"COc1ccc2c3c4c(c5c(ccc6ccn(C)c65)c3n(CCN3CCC[C@H]3CO)c2c1)C(=O)NC4=O [3-{2-[(2S)-2-(hydroxymethyl)pyrrolidin-1-yl]ethyl}-6-methoxy-18-methyl-3,13,18-triazahexacyclo[14.7.0.0^{2,10}.0^{4,9}.0^{11,15}.0^{17,21}]tricosa-1(16),2(10),4(9),5,7,11(15),17(21),19,22-nonaene-12,14-dione]",> 20
5,"Cn1ccc2ccc3c4[nH]c5c(CCO)cccc5c4c4c(c3c21)C(=O)NC4=O [5-(2-hydroxyethyl)-18-methyl-3,13,18-triazahexacyclo[14.7.0.0^{2,10}.0^{4,9}.0^{11,15}.0^{17,21}]tricosa-1(16),2(10),4(9),5,7,11(15),17(21),19,22-nonaene-12,14-dione]",> 20
6,"Cn1ccc2ccc3c4[nH]c5c(CCCO)cccc5c4c4c(c3c21)C(=O)NC4=O [5-(3-hydroxypropyl)-18-methyl-3,13,18-triazahexacyclo[14.7.0.0^{2,10}.0^{4,9}.0^{11,15}.0^{17,21}]tricosa-1(16),2(10),4(9),5,7,11(15),17(21),19,22-nonaene-12,14-dione]",> 20
7,"COc1cccc2c1[nH]c1c3ccc4ccn(C)c4c3c3c(c21)C(=O)NC3=O [5-methoxy-18-methyl-3,13,18-triazahexacyclo[14.7.0.0^{2,10}.0^{4,9}.0^{11,15}.0^{17,21}]tricosa-1(16),2(10),4(9),5,7,11(15),17(21),19,22-nonaene-12,14-dione]",> 20
8,"Cc1ccc2c(c1)[nH]c1c3ccc4ccn(C)c4c3c3c(c21)C(=O)NC3=O [6,18-dimethyl-3,13,18-triazahexacyclo[14.7.0.0^{2,10}.0^{4,9}.0^{11,15}.0^{17,21}]tricosa-1(16),2(10),4(9),5,7,11(15),17(21),19,22-nonaene-12,14-dione]",> 20
9,"Cn1ccc2ccc3c4[nH]c5cc(Br)ccc5c4c4c(c3c21)C(=O)NC4=O [6-bromo-18-methyl-3,13,18-triazahexacyclo[14.7.0.0^{2,10}.0^{4,9}.0^{11,15}.0^{17,21}]tricosa-1(16),2(10),4(9),5,7,11(15),17(21),19,22-nonaene-12,14-dione]",> 20
10,"CCOc1ccc2c(c1)[nH]c1c3ccc4ccn(C)c4c3c3c(c21)C(=O)NC3=O [6-ethoxy-18-methyl-3,13,18-triazahexacyclo[14.7.0.0^{2,10}.0^{4,9}.0^{11,15}.0^{17,21}]tricosa-1(16),2(10),4(9),5,7,11(15),17(21),19,22-nonaene-12,14-dione]",> 20
11,"Cc1cc2ccn(C)c2c2c3c(c4c5ccc(F)cc5[nH]c4c12)C(=O)NC3=O [6-fluoro-18,23-dimethyl-3,13,18-triazahexacyclo[14.7.0.0^{2,10}.0^{4,9}.0^{11,15}.0^{17,21}]tricosa-1(16),2(10),4(9),5,7,11(15),17(21),19,22-nonaene-12,14-dione]",> 20
12,"Cn1ccc2ccc3c4[nH]c5cc(F)ccc5c4c4c(c3c21)C(=O)NC4=O [6-fluoro-18-methyl-3,13,18-triazahexacyclo[14.7.0.0^{2,10}.0^{4,9}.0^{11,15}.0^{17,21}]tricosa-1(16),2(10),4(9),5,7,11(15),17(21),19,22-nonaene-12,14-dione]",> 20
13,"COc1ccc2c(c1)[nH]c1c2c2c(c3c1c(C)cc1ccn(C)c13)C(=O)NC2=O [6-methoxy-18,23-dimethyl-3,13,18-triazahexacyclo[14.7.0.0^{2,10}.0^{4,9}.0^{11,15}.0^{17,21}]tricosa-1(16),2(10),4(9),5,7,11(15),17(21),19,22-nonaene-12,14-dione]",> 20
14,"COc1ccc2c(c1)[nH]c1c3ccc4ccn(C)c4c3c3c(c21)C(=O)NC3=O [6-methoxy-18-methyl-3,13,18-triazahexacyclo[14.7.0.0^{2,10}.0^{4,9}.0^{11,15}.0^{17,21}]tricosa-1(16),2(10),4(9),5,7,11(15),17(21),19,22-nonaene-12,14-dione]",> 20
15,"Cn1ccc2ccc3c4[nH]c5ccc(F)cc5c4c4c(c3c21)C(=O)NC4=O [7-fluoro-18-methyl-3,13,18-triazahexacyclo[14.7.0.0^{2,10}.0^{4,9}.0^{11,15}.0^{17,21}]tricosa-1(16),2(10),4(9),5,7,11(15),17(21),19,22-nonaene-12,14-dione]",> 20
16,"COc1ccc2[nH]c3c4ccc5ccn(C)c5c4c4c(c3c2c1)C(=O)NC4=O [7-methoxy-18-methyl-3,13,18-triazahexacyclo[14.7.0.0^{2,10}.0^{4,9}.0^{11,15}.0^{17,21}]tricosa-1(16),2(10),4(9),5,7,11(15),17(21),19,22-nonaene-12,14-dione]",> 20
17,"Cn1ccc2ccc3c4[nH]c5cccc(CO)c5c4c4c(c3c21)C(=O)NC4=O [8-(hydroxymethyl)-18-methyl-3,13,18-triazahexacyclo[14.7.0.0^{2,10}.0^{4,9}.0^{11,15}.0^{17,21}]tricosa-1(16),2(10),4(9),5,7,11(15),17(21),19,22-nonaene-12,14-dione]",> 20
18,"Cn1ccc2ccc3c4[nH]c5cccc(Br)c5c4c4c(c3c21)C(=O)NC4=O [8-bromo-18-methyl-3,13,18-triazahexacyclo[14.7.0.0^{2,10}.0^{4,9}.0^{11,15}.0^{17,21}]tricosa-1(16),2(10),4(9),5,7,11(15),17(21),19,22-nonaene-12,14-dione]",> 20
19,"Cn1ccc2ccc3c4[nH]c5cccc(F)c5c4c4c(c3c21)C(=O)NC4=O [8-fluoro-18-methyl-3,13,18-triazahexacyclo[14.7.0.0^{2,10}.0^{4,9}.0^{11,15}.0^{17,21}]tricosa-1(16),2(10),4(9),5,7,11(15),17(21),19,22-nonaene-12,14-dione]",> 20
20,"Cc1cc2ccn(C)c2c2c3c(c4c5ccccc5[nH]c4c12)C(=O)NC3=O [18,23-dimethyl-3,13,18-triazahexacyclo[14.7.0.0^{2,10}.0^{4,9}.0^{11,15}.0^{17,21}]tricosa-1(16),2(10),4(9),5,7,11(15),17(21),19,22-nonaene-12,14-dione]",> 20
21,"Cc1cc2ccn(C)c2c2c3c(c4c5ccc(C(F)(F)F)cc5[nH]c4c12)C(=O)NC3=O [18,23-dimethyl-6-(trifluoromethyl)-3,13,18-triazahexacyclo[14.7.0.0^{2,10}.0^{4,9}.0^{11,15}.0^{17,21}]tricosa-1(16),2(10),4(9),5,7,11(15),17(21),19,22-nonaene-12,14-dione]",> 20
22,"CCn1ccc2ccc3c4[nH]c5ccccc5c4c4c(c3c21)C(=O)NC4=O [18-ethyl-3,13,18-triazahexacyclo[14.7.0.0^{2,10}.0^{4,9}.0^{11,15}.0^{17,21}]tricosa-1(16),2(10),4(9),5,7,11(15),17(21),19,22-nonaene-12,14-dione]",> 2
23,"Cn1ccc2ccc3c4[nH]c5ccccc5c4c4c(c3c21)C(=O)NC4=O [18-methyl-3,13,18-triazahexacyclo[14.7.0.0^{2,10}.0^{4,9}.0^{11,15}.0^{17,21}]tricosa-1(16),2(10),4(9),5,7,11(15),17(21),19,22-nonaene-12,14-dione]",> 20
24,"Cn1ccc2ccc3c4[nH]c5c(CCN6CCOCC6)cccc5c4c4c(c3c21)C(=O)NC4=O [18-methyl-5-[2-(morpholin-4-yl)ethyl]-3,13,18-triazahexacyclo[14.7.0.0^{2,10}.0^{4,9}.0^{11,15}.0^{17,21}]tricosa-1(16),2(10),4(9),5,7,11(15),17(21),19,22-nonaene-12,14-dione]",> 20
25,"Cn1ccc2ccc3c4[nH]c5c(CCN6CCSCC6)cccc5c4c4c(c3c21)C(=O)NC4=O [18-methyl-5-[2-(thiomorpholin-4-yl)ethyl]-3,13,18-triazahexacyclo[14.7.0.0^{2,10}.0^{4,9}.0^{11,15}.0^{17,21}]tricosa-1(16),2(10),4(9),5,7,11(15),17(21),19,22-nonaene-12,14-dione]",> 20
26,"Cn1ccc2ccc3c4[nH]c5c(CCCN6CCOCC6)cccc5c4c4c(c3c21)C(=O)NC4=O [18-methyl-5-[3-(morpholin-4-yl)propyl]-3,13,18-triazahexacyclo[14.7.0.0^{2,10}.0^{4,9}.0^{11,15}.0^{17,21}]tricosa-1(16),2(10),4(9),5,7,11(15),17(21),19,22-nonaene-12,14-dione]",> 20
27,"Cn1ccc2ccc3c4[nH]c5cc(C(F)(F)F)ccc5c4c4c(c3c21)C(=O)NC4=O [18-methyl-6-(trifluoromethyl)-3,13,18-triazahexacyclo[14.7.0.0^{2,10}.0^{4,9}.0^{11,15}.0^{17,21}]tricosa-1(16),2(10),4(9),5,7,11(15),17(21),19,22-nonaene-12,14-dione]",> 20
28,"Cn1ccc2ccc3c4[nH]c5cc(C#N)ccc5c4c4c(c3c21)C(=O)NC4=O [18-methyl-12,14-dioxo-3,13,18-triazahexacyclo[14.7.0.0^{2,10}.0^{4,9}.0^{11,15}.0^{17,21}]tricosa-1(16),2(10),4(9),5,7,11(15),17(21),19,22-nonaene-6-carbonitrile]",> 20
29,"Cn1ccc2cc(F)c3c4[nH]c5ccccc5c4c4c(c3c21)C(=O)NC4=O [23-fluoro-18-methyl-3,13,18-triazahexacyclo[14.7.0.0^{2,10}.0^{4,9}.0^{11,15}.0^{17,21}]tricosa-1(16),2(10),4(9),5,7,11(15),17(21),19,22-nonaene-12,14-dione]",> 20
